Assay [1] has as its system K562. As to the kind of experiment: Cytotoxicity against Homo sapiens (human) K562 cells after 72 hr by MTT assay. The class given is functional, cell-based. The settings on record: K562, 72 h.
In assay [2] the target is Tubulin alpha 4a (Ovis aries) (UniProt C5ISA2). In words: (§1) Inhibition of Ovis aries (sheep) brain tubulin polymerization assessed as microtubule assembly after 15 min by measuring turbidity based spectroscopic analysis.
The target in assay [3] is T1, Tubulin alpha 4a (Ovis aries, UniProt C5ISA2). The description is as §1.
The next assay deals with SK-N-MC. In words: Cytotoxicity against Homo sapiens (human) SK-N-MC cells after 72 hr by MTT assay. The class given is functional, cell-based. (Tetrazolium assays rely on reduction of a dye to a coloured formazan, in cell work by metabolically active cells.)
Assay [4] has as its target Tubulin alpha 4a (Ovis aries) (UniProt C5ISA2). As to the kind of experiment: Binding affinity to Ovis aries (sheep) brain tubulin assessed as increase in fluorescent intensity at 1:1 compound protein ratio after 30 min by fluorescence spectroscopic analysis.
The target is the same in assay [5]. In words: Inhibition of Ovis aries (sheep) brain tubulin polymerization assessed as reduction of length of microtubule filament at 20 to 30 uM after 15 min by transmission electron microscopy analysis.
The target is the same in assay [6]. In words: Inhibition of Ovis aries (sheep) brain tubulin polymerization assessed as microtubule assembly at 30 uM after 30 min by CD spectra analysis.
Assay [7] has the same target. In words: (§2) Binding affinity to Ovis aries (sheep) brain tubulin assessed as intrinsic tryptophan fluorescence after 30 min by fluorescence spectroscopic analysis. The format is tissue-based.
For assay [8], the target named is T1, Tubulin alpha 4a. The assay is described as §2. The class given is tissue-based.
The target of assay [9] is Tubulin alpha 4a (Ovis aries) (UniProt C5ISA2). As to the kind of experiment: (§3) Inhibition of Ovis aries (sheep) brain tubulin polymerization assessed as microtubule assembly after 30 min by CD spectra analysis.
The target in assay [10] is T1, Tubulin alpha 4a. The description is as §3.
The target of assay [11] is Tubulin alpha 4a (Ovis aries) (UniProt C5ISA2). As to the kind of experiment: Binding affinity to Ovis aries (sheep) brain tubulin assessed as […] at 25 to 50 uM after 30 min by far-UV CD spectrum analysis.
A further assay concerns HeLa. As to the kind of experiment: Antiproliferative activity against Homo sapiens (human) HeLa cells. The class given is functional, cell-based.
A further assay has as its system MCF7. In words: Antiproliferative activity against Homo sapiens (human) MCF7 cells. The format is functional, cell-based.
Assay [12] concerns K562. As to the kind of experiment: Cytotoxicity against Homo sapiens (human) K562 cells. The class given is functional, cell-based.

Data on six compounds can be found in ChEMBL document CHEMBL3045461, “Biological evaluation of synthetic analogues of curcumin: chloro-substituted-2-hydroxychalcones as potential inhibitors of tubulin polymerization and cell proliferation” (Med Chem Res, 2011).

The source made the active and inactive calls. The rule behind the calls is not given here.

T1 sequence (C5ISA2 1-448): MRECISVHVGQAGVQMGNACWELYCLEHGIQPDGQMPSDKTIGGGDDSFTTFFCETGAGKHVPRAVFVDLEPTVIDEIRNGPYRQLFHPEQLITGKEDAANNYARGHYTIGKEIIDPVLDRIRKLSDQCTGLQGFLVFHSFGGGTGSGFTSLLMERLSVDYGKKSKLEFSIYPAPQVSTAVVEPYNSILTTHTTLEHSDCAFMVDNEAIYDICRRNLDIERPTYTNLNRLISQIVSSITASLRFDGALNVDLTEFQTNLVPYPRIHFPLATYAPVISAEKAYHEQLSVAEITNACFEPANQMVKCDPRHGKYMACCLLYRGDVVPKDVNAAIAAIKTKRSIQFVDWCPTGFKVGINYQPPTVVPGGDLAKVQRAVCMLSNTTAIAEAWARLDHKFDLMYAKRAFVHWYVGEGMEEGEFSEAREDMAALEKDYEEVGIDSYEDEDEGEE
Chain of Tubulin alpha 4a (Ovis aries) (C5ISA2 1-448): as above

In the case of `O=C(/C=C/c1ccc(Cl)cc1)c1cc(Cl)ccc1O`, the IC50 (in general, the concentration needed to halve the response being measured) in the assay with K562 [1] came out at 38.7 µM; on Tubulin alpha 4a [3], 20.3 µM; with SK-N-MC, 45.8 µM. Further, the inhibition (as a rule, the relative decrease from the control value, in per cent) in [2] was “Dose-dependent effect”.
Turning to `O=C(/C=C/c1cccc(Cl)c1)c1cc(Cl)ccc1O`, the result in assay [4] and in [11] was Active. Also, the IC50 came to 41.1 µM with K562 [1], 19.6 µM on Tubulin alpha 4a [3], 47.8 µM in the assay with SK-N-MC and 19.6 µM at Tubulin alpha 4a [10]. Moreover, the inhibition result in assay [5] is “Active”. For the same compound, the inhibition in assay [6] is 89%; in assay [2], “Dose-dependent effect”; in assay [9], “Dose-dependent effect”. Besides, the Activity entry in assay [7] was “Dose-dependent effect”. Moreover, the Kd (usually the constant that tells how readily two partners part at equilibrium) on Tubulin alpha 4a [8] is 3.7 µM.
Turning to `O=C(/C=C/c1ccc(Cl)cc1Cl)c1cc(Cl)ccc1O`, the IC50 in the assay on K562 [1] is 65.6 µM; at Tubulin alpha 4a [3], greater than 50 µM; in the assay with SK-N-MC, 69.8 µM.
As for `O=C(/C=C/c1ccccc1)c1ccccc1O` [2'-HYDROXYCHALCONE], the IC50 in the assay on K562 [1] stood at 60.7 µM; at Tubulin alpha 4a [3] it was 49.3 µM; in the assay with SK-N-MC it was 61.2 µM.
On to `O=C(/C=C/c1ccccc1Cl)c1cc(Cl)ccc1O`, for which the IC50 in the assay on K562 [1] is 41.8 µM; at Tubulin alpha 4a [3], 21.4 µM; in the assay on SK-N-MC it was 51.3 µM. The inhibition entry in [2] is “Dose-dependent effect”.
As for `COc1cc(/C=C/C(=O)CC(=O)/C=C/c2ccc(O)c(OC)c2)ccc1O` [CURCUMIN], the IC50 with HeLa is 13.8 µM; with MCF7, 12 µM; in the assay with K562 [1], 49.2 µM; on Tubulin alpha 4a [3], 26.6 µM; in the assay on SK-N-MC, 57.4 µM; with K562 [12] it was 54.3 µM.
